The source of these data is US20060228297A1, “Thorium-227 for use in radiotherapy of soft tissue disease” (priority 2003, published 2006).

Like-named read-outs stand apart in the source and are kept apart here.

One data set deals with adult dogs. The note with it: cited from earlier work; for % of baseline at nadir (neutrophils) / Days to nadir (neutrophils): dogs.
For data set [1], the system named is CD20 antigen expressing human lymphoma cell line DAUDI. Description: Binding of ^227Th labeled antibody to DAUDI human lymphoma cells. As to conditions: for Mean cpm bound per cell pellet, Unblocked: 2×10^7 DAUDI cells, two hours at 8° C., mean of a duplicate; for Mean cpm bound per cell pellet, Blocked: cells pre-saturated with 40 μg unlabeled rituximab; for Thorium-227 atoms bound per cell, Blocked: cells pre-saturated with unlabeled rituximab. On the procedure:
DAUDI cells were purchased from European Collection of Cell Cultures (ECACC), Salisbury, UK, and grown according to supplier's instructions using culture medium and supplement from Gibco (Paisley, Scotland, UK) and using 500 ml culture flasks (Cell Star, Greiner Bio-One GmbH, Frickenhausen, Germany). DAUDI cells (2×10^7 cells in 0.7 ml PBS) were used to study binding of ^227Th labeled rituximab in vitro. As control of nonspecific binding, DAUDI cells pre-saturated (blocked) with 40 μg unlabeled rituximab for 15 minutes were used. To the test tubes (Polystyrene culture test tubes, 12×75 mm, Elkay, Shrewsbury, Mass., USA) were added ^227Th labeled rituximab corresponding to 1.3, 5.3, or 26 μg/ml respectively. The experiment was performed in duplicate at each concentration level using unblocked and blocked cells. Incubation was performed for two hours at 8° C. After incubation, cell suspensions were counted for radioactivity (Crystal II Multidetector, Packard Instrument Company Inc. Downers Grove, Ill., USA) and the cells washed with 2 ml of 1% BSA (Albumin, Bovine Fraction V, Sigma Chemical Co., St. Louis, Mo., USA) in PBS (Gibco, Paisley, Scotland, UK) and centrifuged (Centrifuge 5810 R, Eppendorf AG, Hamburg, Germany) at 200 rpm for 5 minutes. The washing/centrifugation was repeated twice. Thereafter the cell pellets were counted for radioactivity. The results (each the mean of a duplicate) are set out in Table 3 below.

The mark [2] stands for this setting: 13 kBq/kg single intravenous injection.
The mark [3] stands for this setting: 40 kBq/kg single intravenous injection.
Where [4] appears, read: 120 kBq/kg single intravenous injection.
[5] abbreviates: 350 kBq/kg single intravenous injection.

Consider `[224Ra]` [^224Ra, radium-224], for which the “Death caused by haematological dyscrasia resulting from bone marrow destruction, number of dogs” value in the data set on adult dogs (350 kBq/kg) is on record as 3 dogs out of 8. For the same molecule, the “% of baseline at nadir (neutrophils)” value in the data set with adult dogs (setting [2]) is reported as 60%; with adult dogs (setting [3]), 70%; in the data set with adult dogs (setting [4]), 20%; with adult dogs (setting [5]), 4%. Further, the “Days to nadir (neutrophils)” value with adult dogs (setting [2]) was 30 days; with adult dogs (setting [3]) it was 10 days; in the data set on adult dogs (setting [4]) it was 10 days; with adult dogs (setting [5]), 10 days.
On to ^227Th-labeled rituximab, for which, in data set [1] (RIC conc. 1.3 μg/ml added), the “Thorium-227 atoms bound per cell, Net specific bound” value was 1.7; the “Thorium-227 atoms bound per cell, Unblocked” value is 1.9; the “Mean cpm bound per cell pellet, Unblocked” value came to 226 cpm; the “Mean cpm bound per cell pellet, Blocked” value is given as 25 cpm. The “Thorium-227 atoms bound per cell, Blocked” value in data set [1] (RIC conc. 1.3 μg/ml added) was found to be 0.2. Also, in data set [1] (RIC conc. 5.3 μg/ml added), the “Thorium-227 atoms bound per cell, Net specific bound” value is given as 9.3; the “Thorium-227 atoms bound per cell, Unblocked” value is listed as 10.1; the “Mean cpm bound per cell pellet, Unblocked” value came out at 1186 cpm; the “Mean cpm bound per cell pellet, Blocked” value worked out at 97 cpm. Further, the “Thorium-227 atoms bound per cell, Blocked” value in data set [1] (RIC conc. 5.3 μg/ml added) stood at 0.8. In addition, in data set [1] (RIC conc. 26.0 μg/ml added), the “Thorium-227 atoms bound per cell, Net specific bound” value is on record as 32.5; the “Thorium-227 atoms bound per cell, Unblocked” value was 35.2; the “Mean cpm bound per cell pellet, Unblocked” value is 4141 cpm; the “Mean cpm bound per cell pellet, Blocked” value is 315 cpm. Moreover, in data set [1] (RIC conc. 26.0 μg/ml added), the “Thorium-227 atoms bound per cell, Blocked” value is given as 2.7. Also, the “RIC bound to the unblocked vs. the blocked cells” value in data set [1] (on average over the three concentrations) is listed as “about 12 times”. Further, in data set [1] (unblocked vs. blocked cells), the “Specific binding to the DAUDI cells” value is recorded as “did bind specifically”.
